How the values were obtained:
[1] = test system: foreskin cells; assay: SA-β-gal staining of doxorubicin-treated foreskin cells (Example 1-1); assay type: cell-based, human; details: proportion of SA-β-gal stained cells; doxorubicin 250 nM 24 h + 7 days
Procedure: Specifically, foreskin cells (source: Chungnam National University College of Medicine) derived from humans were cultured in a designated medium (Iscove's Modified Dulbecco's Medium, source: ATCC; 10% FBS, source: GenDEPOT; 100 U/ml Penicillin & Streptomycin, source: Invitrogen), then treated with doxorubicin (DOX) dissolved in dimethyl sulfoxide (DMSO) at a concentration of 250 nM for 24 hours, and further cultured for 7 days to induce aging. […] To measure the proportion of aged cells, cells treated with doxorubicin and the control group were inoculated into a 24 well plate and stabilized for 24 hours. Then SA-β-gal, a marker related to aging, was stained using a kit (purchased from Cell Signaling Technology), and the proportion of senescent cells having the stained SA-β-gal was measured using an optical microscope.

[2] = test system: SAOS-2; assay: SA-β-gal staining of doxorubicin-treated SAOS-2 cells (Example 2-1); assay type: cell-based, human; details: doxorubicin-induced aging as in Example 1-1
[3] = test system: SAOS-2; assay: CellTiter-Glo cell viability of senescent SAOS-2 cancer cells (Example 2-2); assay type: cell-based, human
Procedure: The standard for treating various cancers, including osteosarcoma, is repeated chemotherapy. Accordingly, aging was induced in SAOS-2 in the same manner as in Example 2-1, and then (i) treated again with doxorubicin (DOX→DOX) or (ii) treated with the LX-112 (5 μM) composition (DOX→LX-112).

[4] = test system: SAOS-2; assay: senescent SAOS-2 tumor size in mice (Example 2-3); assay type: in vivo, BALB/c nude mice; details: doxorubicin 10 mg/kg i.p.; after 10 days LX-112 100 mg/kg oral daily 21 days or repeated doxorubicin
Procedure: After 7-week-old male BALB/c nude mice (purchased from KRIBB Laboratory Animal Resource Center) were adapted to the experimental environment for one week, the mice were randomized into an experimental group and a control group. SAOS-2 (10^6 cells), a human osteosarcoma cancer cell line cultured in the same manner as Example 2-1, was mixed with PBS (purchased from Welgene) and then anesthetized using 2% isoflurane (purchased from Sigma). It was administered subcutaneously to mice. When the size of the tumor reached about […], doxorubicin was mixed at a concentration of 10 mg/kg in a 1:1 solution of distilled water and PBS (pH 7.2) and administered intraperitoneally to induce tumor aging. After 10 days, LX-112 mixed with 0.5% CMC-Na solution (purchased from Sigma) at a concentration of 100 mg/kg was orally administered daily for 21 days, and the size of the tumor was measured. The control group was repeatedly administered a solution mixed with doxorubicin, and then the size of the tumor was measured.

[5] = test system: p16, p21; assay: p16 and p21 mRNA qRT-PCR in doxorubicin-aged mice (Example 8-2); assay type: in vivo, C57BL6J mice; details: mice, doxorubicin 10 mg/kg i.p.; untreated = 1
Procedure: (§1) After adapting 8-week-old male C57BL6J mice (purchased from KRIBB Laboratory Animal Resource Center) to the experimental environment for 1 week, doxorubicin, an anticancer drug, was administered intraperitoneally at a concentration of 10 mg/kg, and mice that were induced to age for more than 10 days were assigned to an experimental group and a control group. LX-112 was mixed with 0.5% CMC-Na solution (purchased from Sigma) and administered orally at a concentration of 70 mg/kg daily for 21 days. The control group was administered only the solution in the same volume. After drug administration was completed, the method described in each Example below was performed.
The mouse was sacrificed in the same manner as in Example 7-2, RNA was extracted from the organ tissue of each region, and qRT-PCR was performed and analyzed using the synthesized cDNA. […] Table 37 calculates the mRNA amounts of p16 and p21 after aging was induced by treatment with the anticancer drug as 100% and compared them with the mRNA amounts of p16 and p21 after treatment with LX-112.

[6] = test system: SA-β-gal; assay: SA-β-gal staining of tissues of doxorubicin-aged mice (Example 8-3); assay type: in vivo, C57BL6J mice; details: stained area; mice, doxorubicin 10 mg/kg i.p.; untreated = 1
Procedure: as §1
Mice were sacrificed in the same method in described in Example 7-3, and tissue sections were prepared from the organ tissues of each region. SA-β-gal, an aging marker was stained. […] FIG. 3 is a photographic result of staining of adipose tissue.

[7] = test system: lipofuscin; assay: lipofuscin staining of muscle of doxorubicin-aged mice (Example 8-4); assay type: in vivo, C57BL6J mice; details: stained area; mice, doxorubicin 10 mg/kg i.p.; untreated = 1
Procedure: as §1
Mice were sacrificed in the same manner as in Example 7-4, and tissue sections were prepared from muscle tissue. Lipofuscin, an aging-related degenerative marker was stained.

[8] = test system: IL6; assay: serum IL6 ELISA in doxorubicin-aged mice (Example 8-5); assay type: in vivo, C57BL6J mice; details: mice, doxorubicin 10 mg/kg i.p., untreated = 1
Procedure: as §1
The amount of IL6, an aging-related inflammation secretory factor (SASP), was measured in serum collected from mice in the same manner as in Example 7-5 using an enzyme-linked immunosorbent assay (ELISA Kit, purchased from R&D Systems).

[9] = test system: IL6, CXCL1, CXCL10, IL1β; assay: SASP mRNA qRT-PCR in doxorubicin-aged mice (Example 8-6); assay type: in vivo, C57BL6J mice; details: mice, doxorubicin 10 mg/kg i.p.; untreated = 1
Procedure: as §1
Using cDNA synthesized in the same manner as Example 7-6, qRT-PCR was performed and analyzed for aging-related inflammation and fibrosis secretory factors (SASP) such as IL6, CXCL1, CXCL10, and IL1β. […] Table 45 calculates the mRNA amount of each factor after aging was induced by treatment with the anticancer drug as 100% and compared it with the mRNA amount of each factor after treatment with LX-112.

[10] = fatigue/weakness tests and body weight in doxorubicin-aged mice (Example 8-7); assay type: in vivo, C57BL6J mice; details: mice
Procedure: as §1
In the same way as Example 7-7, in order to analyze fatigue and weakness that occur as a side effect due to treatment with anticancer drugs in mice, activity evaluation (open field test), endurance evaluation (wire hanging test), and muscle strength and grip strength test (grip strength test) were performed. […] In Table 47, the amount of each evaluation after aging was induced by treatment with the anticancer drug was calculated as 100% and compared it with the amount of each evaluation after treatment with LX-112.

[11] = test system: AST, ALT; assay: serum AST and ALT in doxorubicin-aged mice (Example 8-8); assay type: in vivo, C57BL6J mice; details: mice, doxorubicin 10 mg/kg i.p., untreated = 1
Procedure: as §1
In the same manner as in Example 7-5, the amounts of AST (aspartate aminotransferase) and ALT (alanine transaminase) released into the blood during liver damage were measured by spectrophotometry in the serum collected from mice using a kit (purchased from Sigma) according to the method described in the manual. […] Table 50 calculates the amount of each factor after aging was induced by treatment with the anticancer drug as 100% and compared it with the amount of each factor after treatment with LX-112.

[12] = test system: IL6, CXCL1, CXCL10, IL1β; assay: SASP mRNA qRT-PCR in doxorubicin-aged mice (Example 8-6); assay type: in vivo, C57BL6J mice; details: doxorubicin 10 mg/kg i.p., untreated = 1
[13] = Table 46, doxorubicin 10 mg/kg i.p.

What does the source list for `COc1cccc2c1C(=O)c1c(O)c3c(c(O)c1C2=O)C[C@@](O)(C(=O)CO)C[C@@H]3O[C@H]1C[C@H](N)[C@H](O)[C@H](C)O1` [DOX, doxorubicin, reference compound]?
SA-β-gal (%) [1]: 90 (±7) %; SA-β-gal (%) [2]: 66 (±5) %; Survival (%) ([3]; DOX → DOX (senescent cells treated again with doxorubicin), 3 d): 72 (±7) %; Survival (%) ([3]; DOX → DOX, 7 d): 55 (±5) %; Tumor Diameter (mm) [4]: 15.4 (±1.2) mm; p16 mRNA (Fold) Kidney [5]: 1.3 (±0.3) Fold; p16 mRNA (Fold) Liver [5]: 2.6 (±0.8) Fold; p16 mRNA (Fold) eWAT [5]: 3.2 (±1.2)^ Fold; p21 mRNA (Fold) Kidney [5]: 2.6 (±2.1) Fold; p21 mRNA (Fold) Liver [5]: 3.8 (±2.3) Fold; p21 mRNA (Fold) eWAT [5]: 3.9 (±3) Fold; SA-β-gal (Fold) Kidney [6]: 4.1 (±1.5) Fold; SA-β-gal (Fold) Liver [6]: 3.7 (±0.9) Fold; SA-β-gal (Fold) Lung [6]: 1.3 (±0.4) Fold; SA-β-gal (Fold) eWAT [6]: 4.2 (±0.9) Fold; Lipofuscin (Fold) Muscle [7]: 2.2 (±0.5) Fold; IL6 (Fold) [8]: 11.7 (±0.5) Fold; mRNA (Fold) CXCL10, Liver [9]: 2.6 (±0.9)^ Fold; mRNA (Fold) IL6, eWAT [9]: 3.2 (±0.3) Fold; Grip Strength Test Strength (N) [10, 13]: 0.7 (±0.1) N; Open Field Test Time in Center (%) [10, 13]: 4.9 (±2.2) %; Wire Hanging Test Time (Sec) [10, 13]: 32 (±11) Sec; Mean Body Weight (g) ([10]; doxorubicin 10 mg/kg i.p. without or with LX-112 70 mg/kg oral daily 21 days): 21.3 (±2.6) g; ALT (Fold) [11]: 1.4 (±0.5) Fold; AST (Fold) [11]: 1.3 (±0.0) Fold; mRNA (Fold) CXCL1, Liver [12]: 3 (±0.9) Fold; mRNA (Fold) CXCL1, eWAT [12]: 1.3 (±0.4)^ Fold; mRNA (Fold) CXCL10, eWAT [12]: 3 (±1.2) Fold; mRNA (Fold) IL1β, Liver [12]: 1.6 (±0.3) Fold; mRNA (Fold) IL1β, eWAT [12]: 1.6 (±0.2) Fold; mRNA (Fold) IL6, Liver [12]: 1.8 (±0.3) Fold
